How the values were obtained:
Adenosine receptor A1 [1] = target: T1, Adenosine receptor A1 (Rattus norvegicus, UniProt P25099); assay: Agonistic activity against adenosine A1 receptor; format: functional
T1 sequence (P25099 whole entry): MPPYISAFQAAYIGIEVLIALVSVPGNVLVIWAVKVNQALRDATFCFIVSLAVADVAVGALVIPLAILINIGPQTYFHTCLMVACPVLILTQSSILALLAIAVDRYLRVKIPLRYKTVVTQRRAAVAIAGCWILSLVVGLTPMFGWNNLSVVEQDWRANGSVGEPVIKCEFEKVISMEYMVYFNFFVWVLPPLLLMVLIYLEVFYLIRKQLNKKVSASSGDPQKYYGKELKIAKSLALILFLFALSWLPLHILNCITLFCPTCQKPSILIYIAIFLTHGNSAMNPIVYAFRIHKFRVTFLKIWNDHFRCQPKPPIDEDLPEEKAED

[2] = target: T2, Adenosine receptor A1 (Rattus norvegicus) (UniProt P25099); assay: Bmax value for adenosine A1 receptor binding at 14.5 uM
T2 sequence (whole entry): T1 sequence (P25099 whole entry)

[3] = target: T2, Adenosine receptor A1 (Rattus norvegicus); assay: Bmax value for adenosine A1 receptor binding at 145 uM
Adenosine receptor A1 [4] = target: T1, Adenosine receptor A1; assay: Kd value for adenosine A1 receptor binding at 14.5 uM
Adenosine receptor A1 [5] = target: T1, Adenosine receptor A1; assay: Kd value for adenosine A1 receptor binding at 145 uM

IC50 (Adenosine receptor A1 [1]) | Bmax [2] | Bmax [3] | Kd (Adenosine receptor A1 [4]) | Kd (Adenosine receptor A1 [5]) | SMILES
120000 nM | 346 fmol/mg | 319 fmol/mg | 1.39 nM | 10.6 nM | CC(CCC(C)C(C)(C)C)C1CC[C@H]2[C@@H]3C[C@H](OS(=O)(=O)O)C4C[C@H](OS(=O)(=O)O)[C@@H](OS(=O)(=O)O)CC4(C)[C@H]3CCC12C (stereo partly specified)
17 nM |  |  |  |  | COc1cc(-c2oc3c(OC)cc(CCCO)cc3c2C=O)ccc1O

Reference: ChEMBL document CHEMBL1152057, “A note of caution in the use of receptor binding assays to screen marine organisms: the action of halistanol trisulphate on adenosine receptors” (Bioorg Med Chem Lett, 1992)
